Experimental data taken from EP0603240B1, “SAFENING HERBICIDAL PYRAZOLYLSULFONYLUREAS” (priority 1991, dated 1993).

Legend:
Format in all cases: in vivo
[1] = system: barnyardgrass (Echinochloa crusgalli); test: Example 3, Procedure I: antidotes against Herbicide No. 1
Outline: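 Corn seeded in silt loam in the greenhouse, covered with a soil layer into which herbicide and antidote (each in acetone) were incorporated, with untreated and herbicide-only controls; sub-irrigated. Herbicide No. 1 at 4.48 down to 0.56 kg/ha. Barnyardgrass response scored as percent injury, with antidote efficacy as the injury difference without vs with antidote.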

[2] = system: barnyardgrass (Echinochloa crusgalli); test: Example 4, Procedure I: Antidote Nos. 15 and 16 against Herbicide No. 1
Description: (§1) Containers were filled and compacted with a fumigated silt loam top soil to a depth of about 1.3 cm from the top of the container. A first container was designated as an untreated control, a second container was designated as a herbicide control, and a third container was designated as a herbicide + antidote test container. Each of the containers was seeded with a crop species. A measured amount of herbicide dispersed or dissolved in acetone was applied to a measured quantity of soil. To this same quantity of soil treated with herbicide, there was added a measured amount of antidote dispersed or dissolved in acetone. The quantity of soil treated with the herbicide and antidote was thoroughly mixed to incorporate the herbicide and antidote in the soil uniformly. The seed bed in the third container of soil was covered with the soil treated with the herbicide and antidote and the container was leveled. For each test series, the seed beds of the first and second containers were likewise covered by soil layers. the cover layer of the first container was not treated with herbicide or antidote.
(§2) The containers were then placed on a bench in a greenhouse and sub-irrigated as required for the duration of the test. […] Plant response is measured in terms of percent injury. Antidote efficacy is indicated as the difference in plant injury by the herbicide(s) without the antidote and with the antidote.
(§3) In the series of greenhouse tests described below, for routine screening purposes the herbicide/antidote compositions were tested in crop/weed combinations involving corn as the crop and either or both of the weeds barnyardgrass (Echinochloa crusgalli), a monocotyledonous weed, and velvetleaf (Abutilon theophrasti), a dicotyledonous weed. In the tables below, these weeds are indicated by the symbols "BYG" and "VL", respectively.
(§4) This example describes tests with Antidote Nos. 15 and 16 to safen Herbicide No. 1 according to Procedure I using corn and the weeds barnyardgrass and velvetleaf as the test plants.

[3] = system: velvetleaf (Abutilon theophrasti); test: as above
Description: as §1, §2, §3, §4

[4] = system: corn; test: Example 13, Procedure II: Herbicide No. 1 + acetochlor (No. 6) with dichloroacetamide antidotes
Description: as §1, §2
(§5) This procedure is the same as Procedure I, but modified in the manner that after incorporation of the chemicals (herbicide and antidote) the containers with the covered seedbed were treated with an initial overhead irrigation equivalent to 0.6 cm rainfall, then subsequently sub-irrigated as required on greenhouse benches.
In this example a plurality of dichloroacetamide antidotes were tested for their safening efficacy against a herbicidal composition comprising Herbicide No. 1 and a co-herbicide, acetochlor (Herbicide No. 6) in corn in the presence of velvetleaf. The procedure used in this example was Procedure II above.

[5] = system: corn; test: Example 16, Procedure II: Herbicide No. 1 + EPTC (No. 4, EPTAM) with antidotes; conditions: Herbicide No.1 1.12 kg/ha + EPTAM 6.72 kg/ha; antidote 2.24 kg/ha
Description: as §1, §2, §5
The test procedure used in these experiments was that of Procedure II described above. The antidotes were applied to a soil cover layer by pipet after spraying the herbicides onto the soil, followed by incorporation and overhead irrigation. […]

[6] = Herb. No. 1 4.48 kg/ha + antidote 0.56 kg/ha
[7] = Herb. No. 1 4.48 kg/ha + antidote 2.24 kg/ha
[8] = Herb. No. 1 6.72 kg/ha + antidote 0.56 kg/ha
[9] = Herb. No. 1 6.72 kg/ha + antidote 2.24 kg/ha

`CC1(C)OC(c2ccco2)CN1C(=O)C(Cl)Cl` (centres unmarked) [compound 15] was tested, and the “% Injury BYG” value ([1]; Herb. No. 1 0.56 kg/ha + antidote 0.56 kg/ha) was 50%, the “% Injury BYG” value ([1]; Herb. No. 1 0.56 kg/ha + antidote 2.24 kg/ha) was 35% and the “% Injury BYG” value ([1]; Herb. No. 1 0.56 kg/ha + antidote 8.96 kg/ha) was 10%. The “% Injury BYG” value ([1]; Herb. No. 1 1.12 kg/ha + antidote 0.56 kg/ha) was 75%, the “% Injury BYG” value ([1]; Herb. No. 1 1.12 kg/ha + antidote 2.24 kg/ha) was 60% and the “% Injury BYG” value ([1]; Herb. No. 1 1.12 kg/ha + antidote 8.96 kg/ha) was 60%. The “% Injury BYG” value ([1]; Herb. No. 1 2.24 kg/ha + antidote 0.56 kg/ha) was 60%, the “% Injury BYG” value ([1]; Herb. No. 1 2.24 kg/ha + antidote 2.24 kg/ha) was 70% and the “% Injury BYG” value ([1]; Herb. No. 1 2.24 kg/ha + antidote 8.96 kg/ha) was 50%. The “% Injury BYG” value [1, 6] was 75%, the “% Injury BYG” value [1, 7] was 70% and the “% Injury BYG” value ([1]; Herb. No. 1 4.48 kg/ha + antidote 8.96 kg/ha) was 80%. For the same compound, the “% Injury BYG” value ([1]; antidote 8.96 kg/ha alone, no herbicide) was 0%, the “% Injury BYG” value [2, 6] was 95% and the “% Injury BYG” value [2, 7] was 90%. The “% Injury BYG” value [2, 8] was 90%, the “% Injury BYG” value [2, 9] was 90% and the “% Injury VL” value [3, 6] was 95%. For the same compound, the “% Injury VL” value [3, 7] was 95%, the “% Injury VL” value [3, 8] was 95% and the “% Injury VL” value [3, 9] was 95%. For the same compound, the “% Injury Corn” value ([4]; Herbicide No.1 0.56 kg/ha + Herbicide No.6 4.48 kg/ha, antidote rate 0.56 kg/ha) was 5%, the “% Injury Corn” value ([4]; Herbicide No.1 0.56 kg/ha + Herbicide No.6 4.48 kg/ha, antidote rate 2.24 kg/ha) was 15% and the “% Injury Corn” value ([4]; Herbicide No.6 4.48 kg/ha, no Herbicide No.1, antidote rate 0.56 kg/ha) was 5%. The “% Injury Corn” value ([4]; Herbicide No.6 4.48 kg/ha, no Herbicide No.1, antidote rate 2.24 kg/ha) was 15% and the “% Injury Corn” value [5] was 5%.
